Data from the NIST ThermoML archive (doi:10.1021/je4009238).

Assays:
[1] = 101 kPa, Liquid
[2] = refractive index (Na D-line) (dimensionless); details: 101.33 kPa, Liquid
[3] = xn = mol fraction of the nth substance listed; details: 101 kPa, Liquid
[4] = refractive index (Na D-line) (dimensionless); xn = mol fraction of the nth substance listed; details: 101 kPa, Liquid

CCCCCCn1cc[n+](C)c1.[Cl-] [1-hexyl-3-methylimidazolium chloride]
Details	mass density, 288.15 K [kg/m3]	mass density, 298.15 K [kg/m3]	mass density, 308.15 K [kg/m3]	mass density, 318.15 K [kg/m3]	refractive index, 288.15 K	refractive index, 298.15 K	refractive index, 308.15 K	refractive index, 318.15 K	viscosity, 308.15 K [mPa·s]	viscosity, 318.15 K [mPa·s]
[1]	1047.99	1042.2	1036.43	1030.62	–	–	–	–	2044.2	884.2
[2]	–	–	–	–	1.5125	1.50953	1.50667	1.5039	–	–

CCCCCCn1cc[n+](C)c1.[Cl-] [1-hexyl-3-methylimidazolium chloride] + CN(C)C=O
Details	mass density, [3] [kg/m3]	refractive index, [4]	viscosity, [3] [mPa·s]
288.15 K, x1 = 0.0312	964.44	1.44088	1.271
288.15 K, x1 = 0.0646	973.48	1.44818	1.715
288.15 K, x1 = 0.102	982	1.45488	2.392
288.15 K, x1 = 0.1456	990.33	1.46175	4.166
288.15 K, x1 = 0.196	998.49	1.46836	6.28
288.15 K, x1 = 0.2502	1005.77	1.47473	10.77
288.15 K, x1 = 0.3144	1013.08	1.4808	17.98
288.15 K, x1 = 0.3893	1020.04	1.48693	32.59
288.15 K, x1 = 0.4796	1026.84	1.49278	65.31
288.15 K, x1 = 0.591	1033.55	1.49886	134.94
288.15 K, x1 = 0.7249	1039.53	1.50429	232.47
288.15 K, x1 = 1	1047.99	1.5125	–
298.15 K, x1 = 0.0312	955.32	1.43634	1.097
298.15 K, x1 = 0.0646	964.62	1.44359	1.451
298.15 K, x1 = 0.102	973.43	1.45059	2.064
298.15 K, x1 = 0.1456	982.06	1.45751	2.874
298.15 K, x1 = 0.196	990.57	1.46433	4.815
298.15 K, x1 = 0.2502	998.08	1.47086	7.927
298.15 K, x1 = 0.3144	1005.74	1.47702	12.52
298.15 K, x1 = 0.3893	1012.97	1.48213	21.49
298.15 K, x1 = 0.4796	1019.96	1.48933	40.25
298.15 K, x1 = 0.591	1026.93	1.49567	76.98
298.15 K, x1 = 0.7249	1033.24	1.50108	178.3
298.15 K, x1 = 1	1042.2	1.50953	–
308.15 K, x1 = 0.0312	946.13	1.43187	0.961
308.15 K, x1 = 0.0646	955.75	1.43909	1.249
308.15 K, x1 = 0.102	964.86	1.44632	1.733
308.15 K, x1 = 0.1456	973.81	1.4533	2.348
308.15 K, x1 = 0.196	982.59	1.46038	3.817
308.15 K, x1 = 0.2502	990.42	1.46695	6.056
308.15 K, x1 = 0.3144	998.35	1.47335	9.115
308.15 K, x1 = 0.3893	1005.87	1.47856	15.08
308.15 K, x1 = 0.4796	1013.14	1.48595	26.46
308.15 K, x1 = 0.591	1020.36	1.49237	47.62
308.15 K, x1 = 0.7249	1026.94	1.49797	75.17
308.15 K, x1 = 1	1036.43	1.50667	2044.2
318.15 K, x1 = 0.0312	936.91	1.42765	0.852
318.15 K, x1 = 0.0646	946.92	1.43468	1.091
318.15 K, x1 = 0.102	956.28	1.44219	1.489
318.15 K, x1 = 0.1456	965.63	1.44909	1.957
318.15 K, x1 = 0.196	974.62	1.45652	3.113
318.15 K, x1 = 0.2502	982.82	1.46293	4.77
318.15 K, x1 = 0.3144	990.96	1.46974	6.88
318.15 K, x1 = 0.3893	998.8	1.47497	10.95
318.15 K, x1 = 0.4796	1006.38	1.48264	18.37
318.15 K, x1 = 0.591	1013.87	1.48916	31.33
318.15 K, x1 = 0.7249	1020.7	1.49498	47.69
318.15 K, x1 = 1	1030.62	1.5039	884.2
